Reference: PubChem BioAssay (NCI)
“And” between values parts separate entries of the source, which are not always exact repeats. Equal entries are not always repeated.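 Dose response: 5 concentrations. Exposure: 48 h. Format: 96-well plates. Endpoint: linear interpolation; highest concentration if not reached. At the GI50, growth is halved. At the TGI there is no net growth.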

Tests used:
Assay in all cases: growth of human tumour cells (NCI), 48 h
[1] = system: OVCAR-5 ovarian
[2] = system: SK-MEL-5 melanoma
[3] = system: ACHN renal
[4] = system: M14 melanoma
[5] = system: RXF 393 renal
[6] = system: CAKI-1 renal
[7] = system: OVCAR-4 ovarian
[8] = system: HL-60(TB) leukemia
[9] = system: SW-620 colon
[10] = system: HCT-15 colon

SMILES | TGI [1] [µM] | TGI [2] [µM] | TGI [3] [µM] | TGI [4] [µM] | TGI [5] [µM] | TGI [6] | TGI [7] [µM] | TGI [8] [µM] | TGI [9] [µM] | TGI [10] [µM] | GI50 [1] [µM] | GI50 [3] [µM] | GI50 [6] [µM] | GI50 [7] [µM] | GI50 [10] [µM] | GI50 [9] [µM] | GI50 [2] [µM] | GI50 [4] [µM] | GI50 [5] [µM] | GI50 [8] [µM]
CN1Cc2cc(O)c(O)cc2C(O)C1 (configuration not stated) | > 100 | > 100 | > 100 | > 100 | > 100 | > 100 µM | > 100 | > 100 | > 100 |  |  |  |  |  |  |  |  |  |  | 
CC(C(=O)c1ccncc1)c1ccccn1 (configuration not stated) | > 100 | > 100 | > 100 | > 100 | > 100 | > 100 µM | > 100 | > 100 | > 100 | > 100 |  |  |  |  |  |  |  |  |  | 
COC(=O)C(Cc1ccc(N(C)C)cc1)(NC(=O)c1ccccc1)P(=O)(OC)OC (configuration not stated) | > 100 | > 100 | > 100 | > 100 | > 100 | > 100 µM | > 100 | > 100 | > 100 | > 100 |  |  |  |  |  |  |  |  |  | 
S=c1nc(N/N=C/c2cccs2)c2cn[nH]c2[nH]1 | 49.5 | > 100 | > 100 | > 100 | > 100 | 42.9 µM | > 100 | > 100 | > 100 | 64.1 |  |  |  |  |  |  |  |  |  | 
COc1ccc(NC(C(N)=O)c2cc3cc(Br)ccc3nc2Cl)cc1 (configuration not stated) | > 100 | > 100 | > 100 | > 100 | > 100 | > 100 µM | > 100 | > 100 | > 100 | > 100 |  |  |  |  |  |  |  |  |  | 
COC1=C(C)C(=O)C2=C(C1=O)C1C3CC4=C(C(=O)C(OC)=C(C)C4=O)C(CNC(=O)C(C)O)N3C(C#N)C(C2)N1C (configuration not stated) | 0.0888 | < 0.01 | 0.359 | 0.0173 | 0.022 | 2 µM | 0.334 | < 0.01 | 0.235 | 10.5 |  |  |  |  |  |  |  |  |  | 
C=CC(C)C1(CCCOCc2ccccc2)C(=S)N2CCC3(CC24CCCC14)OCCO3 (configuration not stated) | > 100 |  | > 100 |  | > 100 | > 100 µM | > 100 | 5.2 | > 100 | > 100 |  |  |  |  |  |  |  |  |  | 
COC1=CC(=O)C=C(OC)C1=O | 52.2 | 37.5 |  |  | 20.7 | 96.6 µM | 16.8 | 12.4 | 13.5 | 80.9 |  |  |  |  |  |  |  |  |  | 
COC(=O)CNC(=O)CCC(C)[C@H]1CCC2C3C(C[C@H](OC(C)=O)[C@@]21C)[C@@]1(C)CCC2(C[C@H]1C[C@H]3OC(C)=O)OOC1(CC[C@]3(C)C4C[C@H](OC(C)=O)[C@@]5(C)C(CC[C@@H]5C(C)CCC(=O)NCC(=O)OC)C4[C@H](OC(C)=O)C[C@@H]3C1)OO2 (some centres not stated) | 9.96 |  | 1.57 | 7.96 |  | 6.96 µM | 13.3 | 2.37 | > 50 | 5.42 |  |  |  |  |  |  |  |  |  | 
COC(=O)[C@]1(c2ccc(N(C)C)cc2OC)C[C@@H]2CCCN(CCc3c1[nH]c1ccccc31)C2 | > 100 | 31.4 |  |  | 37.9 | > 100 µM | 28.2 | 27.3 | > 100 | 46.6 |  |  |  |  |  |  |  |  |  | 
COc1cc2c(cc1Oc1c(Oc3c(O)c(OC)cc4c3C(CC(C)C)N(C)CC4)c(OC)cc3c1C(CC(C)C)N(C)CC3)C(CC(C)C)N(C)CC2 (configuration not stated) | 17.7 | 0.832 |  |  | 3.28 | 4.5 µM | 8.15 | 8.16 | 8.28 | 12.9 |  |  |  |  |  |  |  |  |  | 
O=C(Nc1ccccc1Cl)c1ccc([N+](=O)[O-])cc1 |  | > 100 |  | > 100 | > 100 | > 100 µM |  |  | > 100 | > 100 |  |  |  |  |  |  |  |  |  | 
COC(=O)c1cn(CC(O)CCl)nn1 (configuration not stated) | > 100 | > 100 | > 100 | > 100 | > 100 | > 100 µM | > 100 |  | > 100 | > 100 |  |  |  |  |  |  |  |  |  | 
CCCCCCCCCCCCCC[n+]1ccc(C(N)=O)cc1 | 4.12 |  | 15.9 |  |  | 15 µM | 18.2 |  | 11.2 | 49.6 | 1.2 | 3.47 | 3.04 | 3.26 | 7.19 | 2.31 |  |  |  | 
CCOc1ccc(C(C)c2cc3c(cc2OC)OCO3)cc1 (configuration not stated) | > 100 | 1.15 | > 100 | 45 | 0.539 | > 100 µM | > 100 |  | > 100 | > 100 |  |  |  |  |  |  |  |  |  | 
CN(O)C(=O)CCCC(=O)NCC(C)(C)CNC(=O)CCCC(=O)N(C)O | > 100 | > 100 | > 100 | > 100 | > 100 | > 100 µM | > 100 | > 100 | > 100 | > 100 |  |  |  |  |  |  |  |  |  | 
Cc1cc(OCCOCCC(F)(F)P(=O)(O)O)ccc1CCc1cnc2c(N)nc3cc(CCC(=O)O)ccc3c2c1 | > 100 | > 100 | > 100 | > 100 | > 100 | > 100 µM | > 100 | > 100 | > 100 | > 100 | > 100 | > 100 | 72.7 | > 100 | > 100 | > 100 | > 100 | > 100 | > 100 | > 100
O=C(O)/C(=C\c1ccc(O)cc1)c1cccc2ccccc12 | > 100 | > 100 | > 100 | > 100 | > 100 | > 100 µM | > 100 |  | > 100 | > 100 |  |  |  |  |  |  |  |  |  | 
O=P(Nc1ccccc1)(Oc1ccccc1)N(CCCl)CCCl (configuration not stated) | > 100 | > 100 | > 100 | > 100 |  | > 100 µM | > 100 | > 100 | > 100 | > 100 |  |  |  |  |  |  |  |  |  | 
COc1cc2cc(C(=O)N3CC(CCl)c4ccc(N(C)C)cc43)[nH]c2c(OC)c1OC (configuration not stated) | 0.259 | 0.236 |  | 0.237 | 0.0761 | 1.28 µM | 0.729 | 0.292 | 0.773 | > 59.9 |  |  |  |  |  |  |  |  |  | 
Cc1ccc(N=Nc2c(O)ccc3cc(S(=O)(=O)O)ccc23)cc1 | > 100 | > 100 | > 100 | > 100 | > 100 | > 100 µM and 80.8 µM | > 100 | > 100 | > 100 | > 100 |  |  |  |  |  |  |  |  |  | 
Cc1[nH]c2ccccc2c1/C=N/NC(=O)c1cccc(I)c1 | 70.4 | 29.1 | 91.3 | 30 | 36.3 | 50.4 µM | 43.2 | 57.5 | > 100 | 84.5 |  |  |  |  |  |  |  |  |  | 
